The test system of the series is rodent carcinogenicity bioassays, tumor incidence. The series is described as follows: CCRIS carcinogenicity studies. In a few lines: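 Archive of carcinogenicity, mutagenicity, tumor promotion and tumor inhibition results drawn from journals, NCI reports and other sources, expert-reviewed; covers 1985-2011 and is no longer updated.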

Results on 9 compounds are retold here after PubChem BioAssay AID1259411 (Chemical Carcinogenesis Research Information System (CCRIS), 2018).

Calls of active or inactive are those of the source. How the calls were made is not given here.

For the compound `C[C@]12C=CC(=O)C=C1CC[C@@H]1[C@@H]2C(=O)C[C@@]2(C)[C@H]1CC[C@]2(O)C(=O)CO`, the carcinogen call is “inactive; negative” (Species: MOUSE, Strain/Sex: ICR/FEMALE, Route: ORAL, Dose: 0, 0.25, 0.5, 1, 5 MG/KG/D FOR 18 MO (STUDY DURATION: 18 MO), Dose: 0, 0.25, 0.5, 1, 5 MG/KG/D FOR 18 MO (STUDY DURATION: 18 MO)) and “inactive; negative” (Species: MOUSE, Strain/Sex: ICR/MALE, Route: ORAL, Dose: 0, 0.25, 0.5, 1, 5 MG/KG/D FOR 18 MO (STUDY DURATION: 18 MO), Dose: 0, 0.25, 0.5, 1, 5 MG/KG/D FOR 18 MO (STUDY DURATION: 18 MO)).
For `O=S(=O)(O)OCc1c2ccccc2c2ccc3cccc4ccc1c2c43`, the carcinogen call was “active; positive” (Species: MOUSE, Strain/Sex: B6C3F1/MALE, Route: INTRAPERITONEAL, Dose: 0, 0.0025 UMOL/G ONCE AT 12 DAYS OF AGE (STUDY DURATION: 10 MO), Tumor Site: Type of Lesion: LIVER: HEPATOMA) and “active; positive” (Species: RAT, Strain/Sex: SPRAGUE-DAWLEY/FEMALE, Route: SUBCUTANEOUS, Dose: 0, 0.2 UMOL 3/WK FOR 20 DOSES (STUDY DURATION: 52 WK), Tumor Site: Type of Lesion: INJECTION SITE: SARCOMA).
Turning to `O=C[C@H](O)[C@@H](O)[C@H](O[C@@H]1O[C@H](CO)[C@H](O)[C@H](O)[C@H]1O)[C@H](O)CO`, the carcinogen call reads like this: (Species: RAT, Strain/Sex: SPF/FEMALE, Route: ORAL, Dose: 0, 20% IN DIET FOR DURATION OF STUDY ADMINISTERED TO OFFSPRING OF RATS FED THE SAME DIETS (STUDY DURATION: 130 WK)) “inactive; negative”; (Species: RAT, Strain/Sex: SPF/MALE, Route: ORAL, Dose: 0, 20% IN DIET FOR DURATION OF STUDY ADMINISTERED TO OFFSPRING OF RATS FED THE SAME DIETS (STUDY DURATION: 130 WK), Tumor Site: Type of Lesion: ADRENAL GLAND: MEDULLARY TUMORS, TESTES: LEYDIG CELL TUMOR) “active; positive”.
Consider `O=C(OC[C@@H]1O[C@H](OC(=O)c2cc(O)c(O)c(OC(=O)c3cc(O)c(O)c(O)c3)c2)[C@@H](OC(=O)c2cc(O)c(O)c(OC(=O)c3cc(O)c(O)c(O)c3)c2)[C@H](OC(=O)c2cc(O)c(O)c(OC(=O)c3cc(O)c(O)c(O)c3)c2)[C@H]1OC(=O)c1cc(O)c(O)c(OC(=O)c2cc(O)c(O)c(O)c2)c1)c1cc(O)c(O)c(OC(=O)c2cc(O)c(O)c(O)c2)c1`, for which the carcinogen call is “active; positive” (Species: MOUSE, Route: SUBCUTANEOUS, Tumor Site: Type of Lesion: LIVER, INJECTION SITE); “active; positive” (Species: RAT, Route: SUBCUTANEOUS, Tumor Site: Type of Lesion: LIVER); “inactive; negative” (Species: RAT, Strain/Sex: F344/FEMALE, Route: ORAL, Dose: 0, 0.25, 0.5% IN DISTILLED WATER AS DRINKING WATER FOR 2 YR (STUDY DURATION: 114 WK), Dose: 0, 0.25, 0.5% IN DISTILLED WATER AS DRINKING WATER FOR 2 YR (STUDY DURATION: 114 WK)); “inactive; negative” (Species: RAT, Strain/Sex: F344/MALE, Route: ORAL, Dose: 0, 0.25, 0.5% IN DISTILLED WATER AS DRINKING WATER FOR 2 YR (STUDY DURATION: 114 WK), Dose: 0, 0.25, 0.5% IN DISTILLED WATER AS DRINKING WATER FOR 2 YR (STUDY DURATION: 114 WK)).
Turning to `CC(=O)N(O)c1ccc(/C=C/c2ccccc2)cc1`, the carcinogen call (Species: RAT, Strain/Sex: STRAIN-CD/FEMALE, Route: INTRAPERITONEAL, Dose: 0, 10 UMOL/KG BW 2/WK FOR 6 WK (STUDY DURATION: 62 WK), Tumor Site: Type of Lesion: LIVER: NEOPLASTIC NODULE, MAMMARY GLAND: TUMOR, EAR DUCT: TUMOR, PITUITARY GLAND: CARCINOMA, Tumor Site: Type of Lesion: LIVER: NEOPLASTIC NODULE, MAMMARY GLAND: TUMOR, EAR DUCT: TUMOR, PITUITARY GLAND: CARCINOMA) was “active; positive” and the carcinogen call (Species: RAT, Strain/Sex: STRAIN-CD/MALE, Route: INTRAPERITONEAL, Dose: 0, 10 UMOL/KG BW 2/WK FOR 6 WK (STUDY DURATION: 62 WK), Tumor Site: Type of Lesion: TESTICLE: MESOTHELIOMA, PANCREAS(ACINUS): ADENOMA, EAR DUCT: CARCINOMA, Tumor Site: Type of Lesion: TESTICLE: MESOTHELIOMA, PANCREAS(ACINUS): ADENOMA, EAR DUCT: CARCINOMA) is “active; positive”.
With `C/C=C/C=C/C=O`, the carcinogen call is “active; positive” (Species: MOUSE, Strain/Sex: B6C3F1/FEMALE, Route: GAVAGE, Dose: 0, 30, 60, 120 MG/KG IN CORN OIL 5 D/WK FOR DURATION OF STUDY (STUDY DURATION: 105 WK), Dose: 0, 30, 60, 120 MG/KG IN CORN OIL 5 D/WK FOR DURATION OF STUDY (STUDY DURATION: 105 WK), Tumor Site: Type of Lesion: FORESTOMACH: SQUAMOUS CELL PAPILLOMA, SQUAMOUS CELL CARCINOMA, SQUAMOUS CELL PAPILLOMA OR CARCINOMA); “active; positive” (Species: MOUSE, Strain/Sex: B6C3F1/MALE, Route: GAVAGE, Dose: 0, 30, 60, 120 MG/KG IN CORN OIL 5 D/WK FOR DURATION OF STUDY (STUDY DURATION: 105 WK), Dose: 0, 30, 60, 120 MG/KG IN CORN OIL 5 D/WK FOR DURATION OF STUDY (STUDY DURATION: 105 WK), Tumor Site: Type of Lesion: FORESTOMACH: SQUAMOUS CELL PAPILLOMA, SQUAMOUS CELL CARCINOMA, SQUAMOUS CELL PAPILLOMA OR CARCINOMA); “active; positive” (Species: RAT, Strain/Sex: F344/FEMALE, Route: GAVAGE, Dose: 0, 22.5, 45, 90 MG/KG IN CORN OIL 5 D/WK FOR DURATION OF STUDY (STUDY DURATION: 105 WK), Dose: 0, 22.5, 45, 90 MG/KG IN CORN OIL 5 D/WK FOR DURATION OF STUDY (STUDY DURATION: 105 WK), Tumor Site: Type of Lesion: FORESTOMACH: SQUAMOUS CELL PAPILLOMA); “active; positive” (Species: RAT, Strain/Sex: F344/MALE, Route: GAVAGE, Dose: 0, 22.5, 45, 90 MG/KG IN CORN OIL 5 D/WK FOR DURATION OF STUDY (STUDY DURATION: 105 WK), Dose: 0, 22.5, 45, 90 MG/KG IN CORN OIL 5 D/WK FOR DURATION OF STUDY (STUDY DURATION: 105 WK), Tumor Site: Type of Lesion: FORESTOMACH: SQUAMOUS CELL PAPILLOMA, SQUAMOUS CELL CARCINOMA, SQUAMOUS CELL PAPILLOMA OR CARCINOMA).
Regarding `CC[C@H](OC(C)=O)C(C[C@H](C)N(C)C)(c1ccccc1)c1ccccc1`, the carcinogen call reads like this: (Species: MOUSE, Strain/Sex: B6C3F1/FEMALE, Route: ORAL, Dose: 0, 7.6, 30.1 MG/KG IN DIET FOR DURATION OF STUDY (STUDY DURATION: 24 MO), Dose: 0, 7.6, 30.1 MG/KG IN DIET FOR DURATION OF STUDY (STUDY DURATION: 24 MO)) “inactive; negative”; (Species: MOUSE, Strain/Sex: B6C3F1/MALE, Route: ORAL, Dose: 0, 7.6, 30.1 MG/KG IN DIET FOR DURATION OF STUDY (STUDY DURATION: 24 MO), Dose: 0, 7.6, 30.1 MG/KG IN DIET FOR DURATION OF STUDY (STUDY DURATION: 24 MO)) “inactive; negative”; (Species: RAT, Strain/Sex: F344/FEMALE, Route: ORAL, Dose: 0, 5.7, 16.6 MG/KG IN DIET FOR DURATION OF STUDY (STUDY DURATION: 24 MO), Dose: 0, 5.7, 16.6 MG/KG IN DIET FOR DURATION OF STUDY (STUDY DURATION: 24 MO), Tumor Site: Type of Lesion: LIVER: ADENOMA OR CARCINOMA, UTERUS: ENDOMETRIAL STROMAL POLYP) “active; positive”; (Species: RAT, Strain/Sex: F344/MALE, Route: ORAL, Dose: 0, 3.1, 9.7 MG/KG IN DIET FOR DURATION OF STUDY (STUDY DURATION: 24 MO), Dose: 0, 3.1, 9.7 MG/KG IN DIET FOR DURATION OF STUDY (STUDY DURATION: 24 MO), Tumor Site: Type of Lesion: LIVER: ADENOMA OR CARCINOMA) “active; positive”.
Turning to `c1ccc2c(c1)Oc1ccccc1O2`, the carcinogen call (Species: MOUSE, Strain/Sex: B6C3F1/FEMALE, Route: ORAL, Dose: 0, 5000, 10000 PPM IN DIET, Dose: 0, 5000, 10000 PPM IN DIET) was “inactive; negative”; the carcinogen call (Species: MOUSE, Strain/Sex: B6C3F1/MALE, Route: ORAL, Dose: 0, 5000, 10000 PPM IN DIET, Dose: 0, 5000, 10000 PPM IN DIET) was “inactive; negative”; the carcinogen call (Species: RAT, Strain/Sex: OSBORNE-MENDEL/FEMALE, Route: ORAL, Dose: 0, 5000, 10000 PPM IN DIET, Dose: 0, 5000, 10000 PPM IN DIET) was “inactive; negative”; the carcinogen call (Species: RAT, Strain/Sex: OSBORNE-MENDEL/MALE, Route: ORAL, Dose: 0, 5000, 10000 PPM IN DIET, Dose: 0, 5000, 10000 PPM IN DIET) is “inactive; negative”.
In the case of `Cc1ccc(N=Nc2c(O)c(S(=O)(=O)O)cc3cc(S(=O)(=O)O)ccc23)c(C)c1`, the carcinogen call reads like this: (Species: MOUSE, Route: ORAL, Tumor Site: Type of Lesion: LIVER) “active; positive”; (Species: RAT, Route: ORAL, Tumor Site: Type of Lesion: LIVER) “active; positive”.
